Assay [1] addresses Serine/threonine-protein kinase 24 (Homo sapiens) (UniProt Q9Y6E0). As to the kind of experiment: Inhibition of MST3 Lys2 labeling site harbouring DIKAANVLLSEHGEVK in human Huh-7 cells at 1 uM by KiNativ Profiling analysis relative to control. The class given is cell-based.
Assay [2] has as its target Ribosomal protein S6 kinase alpha-3 (Homo sapiens) (UniProt P51812). The assay is described as follows: Inhibition of RSK2 domain2 Lys2 labeling site harbouring TVEYLHAQGVVHRDLKPSNILYVDESGNPESIR in human Huh-7 cells at 1 uM by KiNativ Profiling analysis relative to control. Type of assay: cell-based.
Assay [3] has as its target STE20/SPS1-related proline-alanine-rich protein kinase (Homo sapiens) (UniProt Q9UEW8). The assay is described as follows: Inhibition of STLK3 Lys2 labeling site in human Huh-7 cells at 1 uM by KiNativ Profiling analysis relative to control. The class given is cell-based.
Assay [4] addresses Cyclin-dependent kinase 13 (Homo sapiens) (UniProt Q14004). The assay is described as follows: Inhibition of CHED Lys2 labeling site harbouring DIKCSNILLNNR in human Huh-7 cells at 1 uM by KiNativ Profiling analysis relative to control. The class given is cell-based.
Assay [5] has as its target Serine/threonine-protein kinase 26 (Homo sapiens) (UniProt Q9P289). The assay is described as follows: Inhibition of MST4 Lys2 labeling site in human Huh-7 cell lysate at 1 uM by KiNativ Profiling analysis relative to control. Type of assay: subcellular.
The target in assay [6] is Serine/threonine-protein kinase 16 (Homo sapiens) (UniProt O75716). The assay is described as follows: Inhibition of MPSK1 Lys2 labeling site in human A-375 cells at 0.5 uM by KiNativ Profiling analysis relative to control. Type of assay: cell-based.
Chain of Serine/threonine-protein kinase 16 (Homo sapiens) (O75716 whole entry): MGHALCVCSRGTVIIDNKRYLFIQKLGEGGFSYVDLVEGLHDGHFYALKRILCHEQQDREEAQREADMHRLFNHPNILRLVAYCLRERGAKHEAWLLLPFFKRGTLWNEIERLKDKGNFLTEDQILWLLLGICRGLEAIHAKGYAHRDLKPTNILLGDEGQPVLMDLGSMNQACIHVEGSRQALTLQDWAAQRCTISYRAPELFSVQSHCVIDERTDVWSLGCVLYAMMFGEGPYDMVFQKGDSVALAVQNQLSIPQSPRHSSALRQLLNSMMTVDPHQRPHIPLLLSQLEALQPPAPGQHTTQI
For assay [7], the target named is Myosin light chain kinase (Homo sapiens) (UniProt Q32MK0). As to the kind of experiment: Inhibition of MLCK (unknown origin) at 1 uM by Ambit Kinomescan binding assay relative to control; values are per cent of control.
Chain of Myosin light chain kinase (Homo sapiens) (Q32MK0 whole entry): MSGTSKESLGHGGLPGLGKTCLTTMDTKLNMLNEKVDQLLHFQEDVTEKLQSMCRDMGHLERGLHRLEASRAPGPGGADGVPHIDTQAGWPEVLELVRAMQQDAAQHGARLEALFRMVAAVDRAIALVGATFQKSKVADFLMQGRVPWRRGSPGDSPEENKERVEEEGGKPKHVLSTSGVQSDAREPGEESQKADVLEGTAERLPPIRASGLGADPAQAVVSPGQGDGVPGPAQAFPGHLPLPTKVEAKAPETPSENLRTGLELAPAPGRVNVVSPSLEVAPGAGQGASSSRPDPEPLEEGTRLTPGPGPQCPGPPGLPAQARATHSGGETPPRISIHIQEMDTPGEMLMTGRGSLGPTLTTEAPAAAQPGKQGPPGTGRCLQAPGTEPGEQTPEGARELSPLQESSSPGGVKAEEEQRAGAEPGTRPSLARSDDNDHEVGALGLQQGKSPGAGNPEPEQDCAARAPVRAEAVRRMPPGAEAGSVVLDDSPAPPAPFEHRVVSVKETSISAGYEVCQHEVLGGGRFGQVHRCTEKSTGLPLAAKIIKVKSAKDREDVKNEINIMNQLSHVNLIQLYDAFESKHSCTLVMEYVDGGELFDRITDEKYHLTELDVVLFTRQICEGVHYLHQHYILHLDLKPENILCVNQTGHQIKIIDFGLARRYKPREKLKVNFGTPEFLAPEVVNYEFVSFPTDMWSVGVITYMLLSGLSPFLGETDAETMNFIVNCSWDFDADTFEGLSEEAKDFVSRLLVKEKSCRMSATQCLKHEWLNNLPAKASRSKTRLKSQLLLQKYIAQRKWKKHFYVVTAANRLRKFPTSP
For assay [8], the target named is AP2-associated protein kinase 1 (Homo sapiens) (UniProt Q2M2I8). As to the kind of experiment: Inhibition of AAK1 (unknown origin) at 1 uM by Ambit Kinomescan binding assay relative to control.
Assay [9] concerns the target Cyclin-G-associated kinase (Homo sapiens) (UniProt O14976). The assay is described as follows: Inhibition of GAK (unknown origin) at 1 uM by Ambit Kinomescan binding assay relative to control; values are per cent of control.
Assay [10] concerns the target Cyclin-dependent kinase 9 (Homo sapiens) (UniProt P50750). The assay is described as follows: Inhibition of CDK9 (unknown origin) at 10 uM by Ambit Kinomescan binding assay relative to control.
Assay [11] addresses MAP/microtubule affinity-regulating kinase 3 (Homo sapiens) (UniProt P27448). The assay is described as follows: Inhibition of MARK3 K1 labeling site in human Huh-7 cells at 1 uM by KiNativ Profiling analysis relative to control. The class given is cell-based.
For assay [12], the target named is T1, Phosphatidylinositol 5-phosphate 4-kinase type-2 gamma (Homo sapiens) (UniProt Q8TBX8).
T1 sequence (whole entry): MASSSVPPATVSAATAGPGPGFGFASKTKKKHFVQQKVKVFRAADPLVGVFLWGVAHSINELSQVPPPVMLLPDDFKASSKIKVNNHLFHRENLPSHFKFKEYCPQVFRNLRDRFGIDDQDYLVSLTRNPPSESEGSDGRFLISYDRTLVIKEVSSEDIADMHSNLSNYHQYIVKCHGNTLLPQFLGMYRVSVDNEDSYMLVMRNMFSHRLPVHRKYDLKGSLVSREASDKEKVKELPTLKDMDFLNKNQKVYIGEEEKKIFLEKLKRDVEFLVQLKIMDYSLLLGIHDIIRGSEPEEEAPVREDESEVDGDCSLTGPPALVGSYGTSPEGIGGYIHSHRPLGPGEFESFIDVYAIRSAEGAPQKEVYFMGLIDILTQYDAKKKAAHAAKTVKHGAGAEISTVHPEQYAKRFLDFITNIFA
As to the kind of experiment: Inhibition of PIP4K2C ATP labeling site harbouring TLVIKEVSSEDIADMHSNLSNYHQYIVK in human A-375 cells at 0.05 uM by KiNativ Profiling analysis relative to control. The class given is cell-based.

Assay [13] concerns the target Ephrin type-A receptor 7 (Homo sapiens) (UniProt Q15375). The assay is described as follows: Inhibition of EPHA7 (unknown origin) at 10 uM by Ambit Kinomescan binding assay.
Assay [14] can be described thus: Inhibition of NEK6/7 K2 labeling site harbouring DIKPANVFITATGVVK in human Huh-7 cells at 1 uM by KiNativ Profiling analysis relative to control. The conditions noted are these: condition cancer.
In assay [15] the target is Ribosomal protein S6 kinase alpha-3 (Homo sapiens) (UniProt P51812). The assay is described as follows: Inhibition of RSK2 Domain 2 K2 labeling site harbouring DLKPSNILYVDESGNPESIR in human Huh-7 cells at 10 uM by KiNativ Profiling analysis relative to control. Type of assay: cell-based.
Chain of Ribosomal protein S6 kinase alpha-3 (Homo sapiens) (P51812 whole entry, the tested form may be a part): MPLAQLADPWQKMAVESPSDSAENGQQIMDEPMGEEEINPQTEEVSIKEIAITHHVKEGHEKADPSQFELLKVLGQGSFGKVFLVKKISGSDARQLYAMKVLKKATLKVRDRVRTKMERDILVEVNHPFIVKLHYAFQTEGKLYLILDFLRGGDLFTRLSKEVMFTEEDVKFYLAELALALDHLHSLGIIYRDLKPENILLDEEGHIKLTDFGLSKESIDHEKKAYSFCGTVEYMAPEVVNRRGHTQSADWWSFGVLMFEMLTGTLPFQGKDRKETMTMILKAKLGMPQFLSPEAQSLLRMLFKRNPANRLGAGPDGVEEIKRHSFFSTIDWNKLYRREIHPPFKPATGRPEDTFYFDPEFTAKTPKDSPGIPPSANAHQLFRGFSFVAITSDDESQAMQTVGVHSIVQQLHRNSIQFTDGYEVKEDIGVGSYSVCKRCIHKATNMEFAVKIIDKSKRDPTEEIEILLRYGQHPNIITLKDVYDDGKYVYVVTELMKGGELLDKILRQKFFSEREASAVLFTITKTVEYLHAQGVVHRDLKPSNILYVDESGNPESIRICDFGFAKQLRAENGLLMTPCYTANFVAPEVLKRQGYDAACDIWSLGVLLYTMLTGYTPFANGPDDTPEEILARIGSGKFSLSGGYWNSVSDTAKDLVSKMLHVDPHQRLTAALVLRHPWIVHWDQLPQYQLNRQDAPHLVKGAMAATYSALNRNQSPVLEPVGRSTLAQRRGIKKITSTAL
The target of assay [16] is Serine/threonine-protein kinase 35 (Homo sapiens) (UniProt Q8TDR2). As to the kind of experiment: Inhibition of STK35 (unknown origin) at 10 uM by Ambit Kinomescan binding assay relative to control; values are per cent of control.
Assay [17] concerns the target Calcium/calmodulin-dependent protein kinase type II subunit gamma (Homo sapiens) (UniProt Q13555). The assay is described as follows: Inhibition of CAMK2g K1 labeling site harbouring KTSTQEYAAKIINTK in human Huh-7 cells at 10 uM by KiNativ Profiling analysis relative to control. Type of assay: cell-based.
Assay [18] has as its target Mitogen-activated protein kinase 8 (Homo sapiens, UniProt P45983). The assay is described as follows: Inhibition of JNK1 (unknown origin) at 10 uM by Ambit Kinomescan binding assay relative to control.
In assay [19] the target is Peripheral plasma membrane protein CASK (Homo sapiens) (UniProt O14936). As to the kind of experiment: Inhibition of CASK Lys1 labeling site in human A-375 cells at 0.05 uM by KiNativ Profiling analysis relative to control.
Chain of Peripheral plasma membrane protein CASK (Homo sapiens) (O14936 whole entry, looked up): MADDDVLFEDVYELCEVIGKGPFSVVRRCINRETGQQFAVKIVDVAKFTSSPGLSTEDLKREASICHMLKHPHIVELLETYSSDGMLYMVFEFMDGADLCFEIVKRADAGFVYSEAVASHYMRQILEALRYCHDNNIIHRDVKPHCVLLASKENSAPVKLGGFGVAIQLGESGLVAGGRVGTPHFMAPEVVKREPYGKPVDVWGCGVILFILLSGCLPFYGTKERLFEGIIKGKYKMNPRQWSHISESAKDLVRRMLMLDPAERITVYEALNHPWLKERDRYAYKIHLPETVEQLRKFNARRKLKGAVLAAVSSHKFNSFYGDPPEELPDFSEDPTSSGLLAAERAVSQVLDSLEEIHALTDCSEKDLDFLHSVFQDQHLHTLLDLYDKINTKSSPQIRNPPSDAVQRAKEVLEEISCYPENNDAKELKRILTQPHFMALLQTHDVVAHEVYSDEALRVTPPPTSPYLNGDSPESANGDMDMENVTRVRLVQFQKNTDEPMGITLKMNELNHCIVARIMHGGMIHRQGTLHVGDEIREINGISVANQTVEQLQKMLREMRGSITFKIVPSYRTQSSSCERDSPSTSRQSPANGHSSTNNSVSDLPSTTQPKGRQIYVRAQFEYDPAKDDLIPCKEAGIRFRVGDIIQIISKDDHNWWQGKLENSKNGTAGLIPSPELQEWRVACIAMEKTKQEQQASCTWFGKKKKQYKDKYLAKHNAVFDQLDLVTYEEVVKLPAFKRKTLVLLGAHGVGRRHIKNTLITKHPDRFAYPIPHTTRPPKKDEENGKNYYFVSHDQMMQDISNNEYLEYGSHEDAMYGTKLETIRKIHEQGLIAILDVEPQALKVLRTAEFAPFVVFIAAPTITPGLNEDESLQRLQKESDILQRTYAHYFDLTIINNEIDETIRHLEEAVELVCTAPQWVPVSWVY
The target of assay [20] is Tyrosine-protein kinase HCK (Homo sapiens) (UniProt P08631). As to the kind of experiment: Inhibition of HCK (unknown origin) at 10 uM by Ambit Kinomescan binding assay relative to control; values are per cent of control.
Assay [21] has as its target T2, Serine/threonine-protein kinase STK11 (Homo sapiens) (UniProt Q15831).
T2 sequence (whole entry): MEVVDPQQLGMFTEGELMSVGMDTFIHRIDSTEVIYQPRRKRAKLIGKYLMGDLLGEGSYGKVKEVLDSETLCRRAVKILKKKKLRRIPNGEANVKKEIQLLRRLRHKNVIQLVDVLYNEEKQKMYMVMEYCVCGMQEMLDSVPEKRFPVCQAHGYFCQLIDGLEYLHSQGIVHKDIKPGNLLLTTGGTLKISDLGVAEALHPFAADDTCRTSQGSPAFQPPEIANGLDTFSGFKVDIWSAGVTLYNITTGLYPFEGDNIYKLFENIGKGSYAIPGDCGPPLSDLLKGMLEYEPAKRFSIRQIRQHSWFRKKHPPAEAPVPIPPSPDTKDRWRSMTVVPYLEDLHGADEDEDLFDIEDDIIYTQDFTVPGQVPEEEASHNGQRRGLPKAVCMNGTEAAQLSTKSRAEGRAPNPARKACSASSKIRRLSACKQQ
As to the kind of experiment: Inhibition of LKB1 K2 labeling site in human Huh-7 cells at 1 uM by KiNativ Profiling analysis relative to control. The class given is cell-based.

What is called inhibition is the drop in the measured response relative to a control, in per cent. One may read the residual activity as the share of the control activity or signal that is left under treatment. High values mean much activity left, low ones little activity left.

The source made the active and inactive calls. No cut-off for these calls is given here.

Chain of Mitogen-activated protein kinase 8 (P45983 whole entry): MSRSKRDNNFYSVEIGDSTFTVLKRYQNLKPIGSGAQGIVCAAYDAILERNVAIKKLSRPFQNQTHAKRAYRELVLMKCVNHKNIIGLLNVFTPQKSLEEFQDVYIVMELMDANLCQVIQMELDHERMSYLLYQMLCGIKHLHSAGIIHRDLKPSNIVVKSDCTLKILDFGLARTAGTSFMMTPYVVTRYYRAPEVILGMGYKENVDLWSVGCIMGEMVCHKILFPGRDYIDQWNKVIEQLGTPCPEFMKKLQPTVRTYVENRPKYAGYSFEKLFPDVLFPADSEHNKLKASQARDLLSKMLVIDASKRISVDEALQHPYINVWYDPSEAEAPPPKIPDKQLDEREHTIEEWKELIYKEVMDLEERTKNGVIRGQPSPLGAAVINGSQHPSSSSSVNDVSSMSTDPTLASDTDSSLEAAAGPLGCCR
Chain of Calcium/calmodulin-dependent protein kinase type II subunit gamma (Homo sapiens) (Q13555 whole entry): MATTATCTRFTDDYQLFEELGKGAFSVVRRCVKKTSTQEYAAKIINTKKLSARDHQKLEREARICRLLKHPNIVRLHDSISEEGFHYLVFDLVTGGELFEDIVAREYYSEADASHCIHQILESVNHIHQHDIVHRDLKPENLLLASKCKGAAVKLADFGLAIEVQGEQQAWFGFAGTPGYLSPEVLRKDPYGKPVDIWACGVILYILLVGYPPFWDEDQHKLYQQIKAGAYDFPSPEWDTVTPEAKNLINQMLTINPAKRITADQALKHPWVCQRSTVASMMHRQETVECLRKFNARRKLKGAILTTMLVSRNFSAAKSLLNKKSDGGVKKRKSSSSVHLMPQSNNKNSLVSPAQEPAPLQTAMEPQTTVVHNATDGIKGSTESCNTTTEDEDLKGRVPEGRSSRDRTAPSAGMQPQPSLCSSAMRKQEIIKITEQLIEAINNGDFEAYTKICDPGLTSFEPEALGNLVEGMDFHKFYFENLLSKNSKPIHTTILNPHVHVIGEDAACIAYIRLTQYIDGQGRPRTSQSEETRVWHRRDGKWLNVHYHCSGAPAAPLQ
Chain of MAP/microtubule affinity-regulating kinase 3 (Homo sapiens) (P27448 whole entry, looked up): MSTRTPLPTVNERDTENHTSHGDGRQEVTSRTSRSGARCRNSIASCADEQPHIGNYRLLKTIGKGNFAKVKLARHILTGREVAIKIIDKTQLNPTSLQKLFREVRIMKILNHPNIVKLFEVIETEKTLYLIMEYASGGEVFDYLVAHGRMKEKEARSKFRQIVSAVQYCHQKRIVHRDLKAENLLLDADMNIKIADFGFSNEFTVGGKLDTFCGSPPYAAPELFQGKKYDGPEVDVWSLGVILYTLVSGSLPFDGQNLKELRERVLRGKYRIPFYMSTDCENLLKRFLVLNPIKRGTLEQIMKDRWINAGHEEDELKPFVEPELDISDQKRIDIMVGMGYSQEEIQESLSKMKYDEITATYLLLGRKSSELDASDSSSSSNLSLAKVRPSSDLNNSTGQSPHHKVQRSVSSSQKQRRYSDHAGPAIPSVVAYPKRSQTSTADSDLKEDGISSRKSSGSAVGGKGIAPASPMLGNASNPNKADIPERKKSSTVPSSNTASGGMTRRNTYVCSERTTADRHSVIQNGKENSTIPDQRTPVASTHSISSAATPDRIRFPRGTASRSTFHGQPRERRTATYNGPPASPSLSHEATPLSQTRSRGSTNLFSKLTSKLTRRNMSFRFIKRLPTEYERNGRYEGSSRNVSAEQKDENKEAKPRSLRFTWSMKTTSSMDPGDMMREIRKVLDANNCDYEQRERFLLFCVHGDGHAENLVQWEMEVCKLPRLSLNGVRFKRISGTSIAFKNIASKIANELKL
Chain of Cyclin-dependent kinase 9 (Homo sapiens) (P50750 whole entry): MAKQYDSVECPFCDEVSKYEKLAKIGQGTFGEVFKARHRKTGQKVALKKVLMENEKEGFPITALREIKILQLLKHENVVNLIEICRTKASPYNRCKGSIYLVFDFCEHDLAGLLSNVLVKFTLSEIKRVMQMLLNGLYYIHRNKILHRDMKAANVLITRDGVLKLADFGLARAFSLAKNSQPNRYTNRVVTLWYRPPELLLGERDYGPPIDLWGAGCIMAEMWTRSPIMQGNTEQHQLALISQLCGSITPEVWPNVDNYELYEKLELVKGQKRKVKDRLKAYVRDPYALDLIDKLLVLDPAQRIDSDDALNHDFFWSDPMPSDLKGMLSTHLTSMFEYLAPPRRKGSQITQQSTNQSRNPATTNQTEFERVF

Regarding `CNc1cc(Oc2cc(C(=O)Nc3cc(N4CCN(C)CC4)cc(C(F)(F)F)c3)ccc2C)ncn1`, the inhibition in assay [1] was 4.3%; in assay [2] it was 11.5%; in assay [3], 57.3%; in assay [4], 38.1%; in [5], -0.3%.

`CCN1CCN(Cc2ccc(NC(=O)c3ccc(C)c(/C=C/c4cnc5[nH]ccc5c4OC)c3)cc2C(F)(F)F)CC1`: the inhibition in [6] was found to be 15%; in assay [8], 67%. Also, the values for the residual activity in assay [7] and in assay [9] were 100% and 7%, respectively.

For `CCN1CCN(Cc2ccc(NC(=O)c3ccc(C)c(Oc4ccnc5[nH]ccc45)c3)cc2C(F)(F)F)CC1`, the inhibition in assay [10] is 5.8%; in [11], 5%; in [12], -1.1%; in assay [15] it was 14.5%; in assay [17], 6.1%; in assay [18], 0%. Also, the figures for the inhibition in assay [19] and in [21] were 10.9% and 5.5%, respectively. The inhibition entry in assay [13] was “inactive”. Also, the inhibition at 1 µM in assay [14] was -13.1%. This compound registered a residual activity in assay [16] of 3%. Besides, the percent of control in [20] is 0.4%.

For the origin of these results see ChEMBL document CHEMBL5696442, “Discovery of type II inhibitors of TGFβ-activated kinase 1 (TAK1) and mitogen-activated protein kinase kinase kinase kinase 2 (MAP4K2)” (J Med Chem, 2015).
